Source: US11008551B2, “Method to increase the infectivity of virus particles” (The Trustees of Princeton University, priority 2011, dated 2021)

Key:
[1] = system: HCMV; experiment: Mevastatin treatment of infected MRC5 cells, released virus quantified by TCID50; format: cell-based, human cytomegalovirus (HCMV)
Procedure: In a first experiment, MRC5 cells were left untreated, treated with Mevastatin or mock treated. At 90 minutes post Mevastatin treatment, cells were treated with antibody to LRP1 or tubulin or left untreated. 1 hour post Mevastatin treatment, cells were infected at a multiplicity of 0.1 PFU/cell. At 96 hpi, released virus was used to infect new cells.
(§1) In a second experiment, cells were serum starved for 48 hours then treated with indicated antibodies. 1 hour post antibody treatment, serum-starved, confluent MRC5 cells were treated with various concentrations of cholesterol (+fatty acid-free BSA carrier) for 1 hour then infected at a multiplicity of 0.1 PFU/cell. At 96 hpi, released virus was used to infect new cells. “N” indicates no added cholesterol. Cell-free virus was quantified by a TCID50 assay. Data represents the mean and standard deviation from three independent experiments with three replicates each.

[2] = system: HCMV; experiment: Cholesterol supplementation of serum-starved antibody-treated MRC5 cells, cell-free virus by TCID50; format: cell-based, human cytomegalovirus (HCMV); conditions: serum-starved MRC5 cells also treated with LRP1-specific antibody, 0.1 PFU/cell, 96 hpi
Procedure: as §1

[3] = system: HCMV strain AD169 virions; experiment: Infectivity of gradient purified virions treated with MCβD and/or cholesterol; format: cell-based, human cytomegalovirus (HCMV)
Procedure: Due to the ability to sequester cholesterol in its hydrophobic pocket, methyl-ß-cyclodextrin (MCβD) removes cholesterol from membranes (Christian, Haynes et al. 1997). Thus, in order to directly test the role of virion envelope cholesterol in HCMV infection, purified virions were treated with various concentrations of MCβD to deplete cholesterol.
(§2) Gradient purified HCMV strain AD169 virions were either mock treated or treated with increasing concentrations of MCβD for 30 min at 37° C. MCβD (50 mM) treated virus was incubated in varying concentrations of cholesterol for 30 min at 37° C. Virus (no MCβD treatment) was incubated in varying concentrations of cholesterol for 30 min at 37° C. In all experiments, infectivity (FIG. 5, left panels) and cholesterol content (FIG. 5, right panels) were determined for the treated samples. Infectivity of untreated virus was set to 100%. Virus cholesterol content was determined using the amplexred (Invitrogen) specrofluorometric assay.
(§3) To determine whether the effect of MCβD could be rescued (and is thus reversible), and moreover, to determine if the loss of infectivity was due to cholesterol depletion, exogenous cholesterol was used to replenish the envelopes of MCβD-treated virions by incubating the virus particles with various amounts of free cholesterol.
(§4) To determine if virus infectivity could be increased by increasing virion cholesterol content alone, gradient purified HCMV virions were incubated with increasing concentrations of cholesterol then gradient purified for a second time.

[4] = system: HCMV strain AD169 virions; experiment: Virus cholesterol content after MCβD and/or cholesterol treatment, amplex red assay; set-up: species or system human cytomegalovirus (HCMV)
Procedure: as §2
To confirm that MCβD treatment depleted virus of envelope cholesterol, the cholesterol content of MCβD-depleted virus was determined (FIG. 5A, right).
as §3, §4

[5] = system: HCMV strain AD169; experiment: Acid bypass assay of MCβD-treated virus, IE1 expression at 24 hpi; format: cell-based, human cytomegalovirus (HCMV); conditions: MCβD 50 mM, 3 pfu/cell, pH 4.7 vs 7.4, 24 hpi
Procedure: It is known that infection of host cells by enveloped viruses relies on the fusion of the viral envelope with either an endosomal membrane or the plasma membrane of the cell. Therefore, experiments were designed to test whether infectivity of MCβD-treated virus can be restored by using an “acid bypass assay” (Mercer and Helenius 2008) to circumvent the normal membrane fusion process during virus entry.
Cells were infected with MCβD (50 mM)-treated or mock-treated HCMV strain AD169 at a multiplicity of 3 pfu/cell, allowed to sit at 4° C. for 30 min to allow virus binding, then treated with buffer at a neutral (7.4) or acidic (4.7) pH for 3 min, washed with PBS, and examined for IE1 expression 24 hours later.
HCMV particles, either treated with MCβD or left untreated, were bound to cells at 4° C., then incubated in a low pH buffer (pH 4.7) to artificially induce the fusion event, thus allowing fusion-deficient viruses to enter the cell and replicate. A neutral pH buffer was used as a control. Virus replication after acid bypass was visualized by IE1 expression at 24 hpi (FIG. 6).

[6] = MCβD (50 mM) treated virus incubated with varying cholesterol, 30 min at 37° C.
[7] = virus without MCβD treatment incubated with increasing cholesterol
[8] = virions treated with increasing MCβD, 30 min at 37° C.

## CC[C@H](C)C(=O)O[C@H]1CCC=C2C=C[C@H](C)[C@H](CC[C@@H]3C[C@@H](O)CC(=O)O3)[C@H]21 [Mevastatin]
[1]; MRC5 cells also treated with LRP1 antibody
  reversal of the increased infectivity caused by inhibition of LRP1 activity: to a limited extent
[1]; MRC5 cells, 0.1 PFU/cell, 96 hpi, Mevastatin
  production of infectivity: inhibited the production of infectivity in a dose-dependent manner

## CC(C)CCC[C@@H](C)[C@H]1CC[C@H]2[C@@H]3CC=C4C[C@@H](O)CC[C@]4(C)[C@H]3CC[C@]12C [cholesterol]
[2]
  production of HCMV infectivity: substantially enhanced
[3]; [6]
  HCMV infectivity of MCβD-treated virions: partially restored
[3]; [7]
  virus infectivity: increased
[4]; [6]
  envelope cholesterol content of MCβD-treated virions: partially restored
[4]; [7]
  overall cholesterol content of virus: increased

## methyl-ß-cyclodextrin [MCβD]
[3]; [8]
  HCMV infectivity: dose-dependent inhibition
[5]
  ability of treated virus to enter the cell and express IE1 protein after acid bypass: dramatic difference
[4]; 50 mM MCβD
  depletion of virion cholesterol: 90%
[4]; [8]
  virus cholesterol content: dose-dependent decrease
